Results taken from patent publication US20120100067A1, “Solubilisation Method” (MEDIGENE AG, priority 2008, published 2012).

Key:
[1] = Solubilisation of dry Paclitaxel by empty liposomes, filtration, HPLC quantification
Experimental: The Agilent 1100 Series HPLC System (Agilent Technologies, Palo Alto, Calif., USA) consisted of a quaternary pump, an autosampler, a column thermostat and an on-line degasser. A LiChrospher 60 RP (5 μm, 4×250 mm) analytical column (Merck, Darmstadt, Germany) was used. The flow rate of the mobile phase, consisting of 32% (v/v) acetonitrile, 12% tetrahydrofuran and 56% ammoniumacetat (2 mM in water, pH value set to 4.8 with acetic acid) was set at 1 ml/min.

[2] = cited from earlier work
[3] = Solubilisation of Camptothecin by DOTAP/DOPC liposomes, UV/Vis at 369 nm; format: physicochemical; conditions: for concentration of solubilized Camptothecin: 10% trehalose
Experimental: Treated and untreated liposomal formulations were exposed to Camptothecin as described for Paclitaxel in Example 2.1. The concentration of solubilized Camptothecin was determined by UV/Vis-spectroscopy (Beckmann DU 640, Beckmann Coulter, Germany) at 369 nm after dilution in methanol.

expected amount of solubilised Paclitaxel ([1]; 100 mM liposome preparation, freeze/thaw treated, extrapolated from solubilisation factor) [mM]	loading capacity of single-lipid liposomes after freezing/thawing ([1]; 100% DOTAP and 100% DOPC liposomes, 10 mM)	solubility of Paclitaxel in liposomal preparations versus liquid formulation without pre-treatment ([1]; DOTAP/DOPC 50/50 10 mM, spray dried, spray freeze-dried, freeze-dried, frozen)	amount of solubilised Paclitaxel, freeze/thawed versus untreated (factor) ([1]; DOTAP/DOPC 50/50, at a given lipid concentration)	concentration of solubilised Paclitaxel (maximum obtained) ([1]; DOTAP/DOPC 50/50 liposomes, 10-35 mM lipid, 10% trehalose, after freezing/thawing, 3 h)	loading capacity, treated versus untreated lipid dispersions (factor) ([1]; DOTAP/DOPC mixtures 25/75, 50/50, 75/25, 10 mM lipid, freeze/thaw)	loading capacity of binary lipid mixtures after freeze/thawing ([1]; DOTAP/DOPC, DOTAP/DSPC, DSTAP/DSPC 50/50)	improvement of loading capacity, untreated versus treated liposomes (factor) ([1]; DOTAP/DSPC 50/50 liposomes, freeze/thaw)	loading at 15 min incubation compared with 3 hour incubation ([1]; freeze-dried, rehydrated DOTAP/DOPC 50/50 liposomes)	solubilised concentration of Paclitaxel ([1]; per 1 mM of untreated DOTAP/DOPC) [µM]	SMILES	solubility of paclitaxel in a corresponding aqueous buffer ([2]; aqueous buffer without liposomes)	solubility of paclitaxel in water ([2]; water)	enhancement of concentration of solubilized agent, pre-treated versus untreated (factor) ([3]; DOTAP/DOPC 50/50 10 mM)	concentration of solubilized Camptothecin ([3]; pre-treated DOTAP/DOPC 50/50 10 mM) [µM]	concentration of solubilized Camptothecin ([3]; untreated DOTAP/DOPC 50/50 10 mM) [µM]
4	improved	elevated	about a factor of four higher	up to 1600 μM	about a factor of four higher	substantially improved	5	not lower	10	CC(=O)O[C@H]1C(=O)[C@@]2(C)[C@H]([C@H](OC(=O)c3ccccc3)[C@]3(O)C[C@H](OC(=O)[C@H](O)[C@@H](NC(=O)c4ccccc4)c4ccccc4)C(C)=C1C3(C)C)[C@]1(OC(C)=O)CO[C@@H]1C[C@@H]2O [Paclitaxel]	below 1 μM	below 1 μg/ml	–	–	–
–	–	–	–	–	–	–	–	–	–	CC[C@@]1(O)C(=O)OCc2c1cc1n(c2=O)Cc2cc3ccccc3nc2-1 [Camptothecin]	–	–	factor of about three	52	18
